Measurements reported in patent US20250032524A1, “BROAD SPECTRUM AMINOGLYCOSIDES AND USES THEREOF” (REVAGENIX, INC., priority 2022, published 2025).
Like-named read-outs stand apart in the source and are kept apart here.

Key:
Format in all cases: cell-based
P. mirabilis = test: MIC broth microdilution (CLSI); settings: Proteus mirabilis; strain APMI1048, MDR Clinical isolate (CDC CRE panel), CDC AR Bank 0159
Method in brief: (§1)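 2-fold serially diluted compound in cation-adjusted MHB, inoculated at 5×10^5 CFU/mL from 0.5 McFarland suspensions. Incubation: 35° C., ambient air, 18-24 hours. Endpoint: no visible growth (OD 600 nm<0.05); assay controlled with CLSI quality-control strains and neomycin.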

C. freundii = test: MIC broth microdilution (CLSI); settings: Citrobacter freundii, read-out: Activity (MIC)
Method in brief: as §1

E. coli = test: MIC broth microdilution (CLSI); settings: Escherichia coli
Method in brief: as §1

A. baumannii = test: MIC broth microdilution (CLSI); settings: Acinetobacter baumannii
Method in brief: as §1

E. cloacae = test: MIC broth microdilution (CLSI); settings: Enterobacter cloacae; strain AECL1089, MDR Clinical isolate (CDC CRE panel), CDC AR Bank 0154
Method in brief: as §1

S. enterica = test: MIC broth microdilution (CLSI); settings: Salmonella enterica, read-out: Activity (MIC)
Method in brief: as §1

K. pneumoniae = test: MIC broth microdilution (CLSI)
Method in brief: as §1

K. aerogenes = test: MIC broth microdilution (CLSI); settings: Klebsiella aerogenes; strain AEAE1042, MDR Clinical isolate (CDC CRE panel), CDC AR Bank 0161
Method in brief: as §1

S. aureus = test: MIC broth microdilution (CLSI); settings: for MIC: Staphylococcus aureus
Method in brief: as §1

P. aeruginosa = test: MIC broth microdilution (CLSI); settings: Pseudomonas aeruginosa
Method in brief: as §1

[1] = tested on: clinical isolates of multi-drug resistant bacterial pathogens including A. baumannii, MRSA, P. aeruginosa, and CRE; test: MIC secondary panel, overall statement; settings: read-out: minimum inhibitory concentration (MIC) values
Description: Minimum inhibitory concentrations for representative example compounds herein were determined by a broth microdilution method in accordance with the Clinical and Laboratory Standards Institute (CLSI) guidelines. In brief, organism suspensions were adjusted to a 0.5 McFarland standard to yield a final inoculum between 3×10^5 and 7×10^5 colony-forming units (CFU)/mL. The inoculum was prepared by suspension of a colony from an agar plate that was prepared the previous day. Compound dilutions and inoculum were prepared in sterile, cation adjusted Mueller-Hinton Broth (Beckton Dickinson).
Bacteria were suspended in sterile saline and added to each assay plate to obtain a final concentration of 5×10^5 CFU/mL. An inoculum volume of 100 μL was added to wells containing 100 μL of broth with 2-fold serial dilutions of the test compound. All inoculated microdilution trays were incubated in ambient air at 35° C. for 18-24 hours. Following incubation, the lowest concentration of the compound that prevented visible growth (OD 600 nm<0.05) is recorded was the MIC. […] Performance of the assay was monitored by the use of laboratory quality-control strains and a standard compound with a defined MIC spectrum (neomycin), in accordance with CLSI guidelines.
Several compounds of the disclosure (Compounds 1, 2, 3, and 6) were further evaluated against a secondary panel of clinical isolates of multi-drug resistant bacterial pathogens including A. baumannii, methicillin-resistant Staphylococcus aureus (MRSA), P. aeruginosa, and carbapenem-resistant Enterobacteriaceae (CRE).

Compound: C[C@H](N)[C@@H]1CC[C@@H](N)[C@@H](O[C@@H]2[C@@H](N)[C@H](O)[C@@H](NC(=O)[C@@H](O)CCN)[C@H](O)[C@H]2O[C@@H]2O[C@H](CO)[C@@H](O[C@H]3O[C@@H](CN)[C@@H](O)[C@H](O)[C@H]3N)[C@H]2O)O1 [Compound 6, (S)-4-Amino-N-((1R,2S,3S,4R,5R,6S)-3-Amino-4-(((2R,3R,6S)-3-Amino-6-((S)-1-Aminoethyl)Tetrahydro-2H-Pyran-2-Yl)Oxy)-5-(((2S,3R,4S,5R)-4-(((2R,3R,4R,5S,6S)-3-Amino-6-(Aminomethyl)-4,5-Dihydroxytetrahydro-2H-Pyran-2-Yl)Oxy)-3-Hydroxy-5-(Hydroxymethyl)Tetrahydrofuran-2-Yl)Oxy)-2,6-Dihydroxycyclohexyl)-2-Hydroxybutanamide]
- MIC (P. mirabilis): < 16 µg/mL
- MIC (C. freundii): < 16 µg/mL
- MIC (E. coli; read-out: Activity (MIC), strain AECO1225, MDR Clinical isolate (CDC CRE panel), CDC AR Bank 0118): < 16 µg/mL
- MIC (E. coli; read-out: Activity (MIC), strain AECO1226, MDR Clinical isolate (CDC CRE panel), CDC AR Bank 0119): < 16 µg/mL
- MIC (E. coli; read-out: Activity (MIC), strain AECO1227, MDR Clinical isolate (CDC CRE panel), CDC AR Bank 0128): < 16 µg/mL
- MIC (E. coli; read-out: Activity (MIC), strain NECO0003, ΔtolC): < 16 µg/mL
- MIC (E. coli; read-out: Activity (MIC), strain NECO0245, ArmA): < 16 µg/mL
- MIC (E. coli; strain NECO0001, WT QC, read-out: Activity (MIC)): < 16 µg/mL
- MIC (E. coli; strain NECO0002, WT, read-out: Activity (MIC)): < 16 µg/mL
- MIC (E. coli; strain NECO0243, empty vector, read-out: Activity (MIC)): < 16 µg/mL
- MIC (E. coli; strain NECO0244, AAC(6')-Ib, read-out: Activity (MIC)): < 16 µg/mL
- MIC (E. coli; strain NECO0289, APH(3')-Ia, read-out: Activity (MIC)): < 16 µg/mL
- MIC (E. coli; strain NECO0302, AAC(3)-IIa, read-out: Activity (MIC)): < 16 µg/mL
- MIC (E. coli; strain NECO0350, AAC(2')-I, read-out: Activity (MIC)): < 16 µg/mL
- MIC (E. coli; strain NECO0359, ANT(4')-Ia, read-out: Activity (MIC)): < 16 µg/mL
- MIC (A. baumannii; read-out: Activity (MIC), strain NABA0007, ΔadeJK efflux): < 16 µg/mL
- MIC (A. baumannii; read-out: Activity (MIC), strain NABA1427, MDR Clinical isolate): < 16 µg/mL
- MIC (A. baumannii; read-out: Activity (MIC), strain NABA1433, MDR Clinical isolate): < 16 µg/mL
- MIC (A. baumannii; read-out: Activity (MIC), strain NABA1434, MDR Clinical isolate): < 16 µg/mL
- MIC (A. baumannii; read-out: Activity (MIC), strain NABA1436, MDR Clinical isolate): < 16 µg/mL
- MIC (A. baumannii; read-out: Activity (MIC), strain NABA1437, MDR Clinical isolate): < 16 µg/mL
- MIC (A. baumannii; read-out: Activity (MIC), strain NABA1438, MDR Clinical isolate): < 16 µg/mL
- MIC (A. baumannii; read-out: Activity (MIC), strain NABA1439, MDR Clinical isolate): < 16 µg/mL
- MIC (A. baumannii; read-out: Activity (MIC), strain NABA1448, MDR Clinical isolate): < 16 µg/mL
- MIC (A. baumannii; read-out: Activity (MIC), strain NABA1449, MDR Clinical isolate): < 16 µg/mL
- MIC (A. baumannii; read-out: Activity (MIC), strain NABA1450, MDR Clinical isolate): < 16 µg/mL
- MIC (A. baumannii; strain NABA0006, WT parent, read-out: Activity (MIC)): < 16 µg/mL
- MIC (A. baumannii; strain NABA0020, AME negative strain, read-out: Activity (MIC)): < 16 µg/mL
- MIC (E. cloacae): < 16 µg/mL
- MIC (S. enterica): < 16 µg/mL
- MIC (K. pneumoniae; Klebsiella pneumoniae, strain AKPN1246, MDR Clinical isolate (CDC CRE panel), CDC AR Bank 0139): < 16 µg/mL
- Activity (MIC) (K. pneumoniae; strain AKPN1250, MDR Clinical isolate (CDC CRE panel), CDC AR Bank 0143): + (MIC threshold for positive activity (+) is ≤16 μg/mL)
- Activity (MIC) (K. pneumoniae; strain AKPN1253, MDR Clinical isolate (CDC CRE panel), CDC AR Bank 0148): + (MIC threshold for positive activity (+) is ≤16 μg/mL)
- Activity (MIC) (K. pneumoniae; strain AKPN1255, MDR Clinical isolate (CDC CRE panel), CDC AR Bank 0153): + (MIC threshold for positive activity (+) is ≤16 μg/mL)
- MIC (K. aerogenes): < 16 µg/mL
- MIC (S. aureus; ATCC29213, strain NSAU001, wild-type, QC, ATCC 29213): < 16 µg/mL
- MIC (S. aureus; strain NSAU1004, MDR Clinical isolate): < 16 µg/mL
- Activity (MIC) (S. aureus; strain NSAU1015, MDR Clinical isolate): + (MIC threshold for positive activity (+) is ≤16 μg/mL)
- Activity (MIC) (S. aureus; strain NSAU1023, MDR Clinical isolate): + (MIC threshold for positive activity (+) is ≤16 μg/mL)
- Activity (MIC) (S. aureus; strain NSAU1063, MDR Clinical isolate): + (MIC threshold for positive activity (+) is ≤16 μg/mL)
- MIC (P. aeruginosa; read-out: Activity (MIC), strain NPAE0006, Efflux KO, Aph(3')-IIb): < 16 µg/mL
- MIC (P. aeruginosa; read-out: Activity (MIC), strain NPAE0010, MexXY over-expressed, Aph(3')-IIb): < 16 µg/mL
- MIC (P. aeruginosa; read-out: Activity (MIC), strain NPAE1288, MDR Clinical isolate): < 16 µg/mL
- MIC (P. aeruginosa; read-out: Activity (MIC), strain NPAE1293, MDR Clinical isolate): < 16 µg/mL
- MIC (P. aeruginosa; read-out: Activity (MIC), strain NPAE1299, MDR Clinical isolate): < 16 µg/mL
- MIC (P. aeruginosa; read-out: Activity (MIC), strain NPAE1302, MDR Clinical isolate): < 16 µg/mL
- MIC (P. aeruginosa; read-out: Activity (MIC), strain NPAE1303, MDR Clinical isolate): < 16 µg/mL
- MIC (P. aeruginosa; read-out: Activity (MIC), strain NPAE1308, MDR Clinical isolate): > 16 µg/mL
- MIC (P. aeruginosa; read-out: Activity (MIC), strain NPAE1310, MDR Clinical isolate): < 16 µg/mL
- MIC (P. aeruginosa; read-out: Activity (MIC), strain NPAE1313, MDR Clinical isolate): < 16 µg/mL
- MIC (P. aeruginosa; read-out: Activity (MIC), strain NPAE1316, MDR Clinical isolate): < 16 µg/mL
- MIC (P. aeruginosa; read-out: Activity (MIC), strain NPAE1323, MDR Clinical isolate): < 16 µg/mL
- MIC (P. aeruginosa; strain NPAE0001, WT Aph(3')-IIb, QC, read-out: Activity (MIC)): < 16 µg/mL
- MIC (P. aeruginosa; strain NPAE0002, WT Aph(3')-IIb, read-out: Activity (MIC)): < 16 µg/mL
- MIC (P. aeruginosa; strain NPAE0359, aph(3')-IIb KO (tetR), read-out: Activity (MIC)): < 16 µg/mL
- MIC [1]: ≤ 16 µg/mL
